Laboratory results from patent US11173147B2, “Prophylactic or therapeutic agent for delirium” (priority 2016, dated 2021).

Experiments:
[1] = system: Clock mutant mouse; test: Effect on phase delay in Clock mutant mouse (rotating basket exercise); type: in vivo; conditions: for % in the initial dark period (rotating basket exercise) / % in the initial dark period (rotating basket exercise), recovery of decrease: vs solvent; for % in the initial dark period (rotating basket exercise): FIG. 3; for exercise starting time: vs average of 7-day preliminary treatment period; for % in the initial dark period (rotating basket exercise), recovery of decrease: FIG. 1
Experimental: Effect on Phase Delay of Compound A in Clock Mutant Mouse
Male Clock mutant mouse (Trans Genic Inc.) and male ICR mouse (CLEA Japan Inc.) were used as a wild-type control in this study. All animals were bred in groups of 4 or 5 animals per cage in a light control room (lights on at 7:00 and 12 hour light/dark cycle) prior to behavioral test. Food and tap water were freely provided.
21-Week-old and 23-week-old mice were used in experiment 1 and experiment 2 (in each experiment, Clock mutant mouse; n=36, ICR mouse; n=12). In both experiments, the animals were placed in a test room and individually bred under 10 hr/14 hr light/dark cycle (lights on at 7:00 and lights off at 17:00) in a cage provided with a rotating basket (diameter 14.5 cm). In addition, 15 Clock mutant mice and 10 ICR mice were prepared as extra animals in the same room in each experiment. Data on the rotating basket exercise were collected every minute and analyzed using Clocklab (registered trade mark) (Actimetrics, Evanston, Ill., USA).
The animals were first acclimated to a new light/dark cycle for about 2 weeks. In the acclimation period, a total number of exercises in 24 hours (total number) for each day, and the percentage of the number of exercise in the light period (7:00 to 17:00) (percentage in the light period) in the total number were measured.
In the preliminary treatment period, the mice were orally administered with a solvent (0.5% methylcellulose solution) at 15:45-16:19 once daily for 2 weeks for acclimation to administration prior to the drug treatment period. […] The solvent or compound A was orally administered to the animals at 15:45 to 16:13 once a day for 7 days.
In the drug treatment period, % in the initial dark period was measured, and the exercise start time was measured using same as an additional index in the Clock mutant mice. Using the aforementioned parameter, the minimum effective dose of compound A in these experiments (experiments 1 and 2) was determined.
The data are shown in average ±SEM. A statistical significance between ICR mouse and Clock mutant mouse was determined by Student's t-test (experiment 1) or Aspin-Welch test (experiment 2) in which P≤0.05 was significant. For analysis of multiple administration of compound A, the statistical significance was determined by one-sided Williams' 20 test (experiments 1 and 2) in which P≤0.025 was significant.

[2] = system: plasma melatonin; test: Effect on nocturnal plasma melatonin concentration in rats; type: in vivo, rat; conditions: Wistar rats, 3 mg/kg orally once per day for 7 days, vs vehicle, FIG. 5
Experimental: Effect of Compound A on Nocturnal Plasma Melatonin Concentration in Rats
9-Week-old male Wistar rats (CLEA Japan Inc.) were used for this study. All rats (n=12) were bred in groups of 2 to 5 animals per cage in a light control room (lights on at 7:00 and 12 hour light/dark cycle) prior to the test and made to get used to it for about two weeks. Food and tap water were freely provided.
A solvent or compound A was orally administered to 11-week-old rats at a dose of 3 mg/kg once per day at 17:00-17:15 for 7 days. After the final treatment, blood samples (500 μL) were successively collected from the tail artery of each rat at 20:00 (ZT (Zeitgeber Time)) 13), 22:00 (ZT15), 0:00 (ZT17), 2:00 (ZT19), 4:00 (ZT21), 6:00 (ZT23) and 8:00 (ZT25) in EDTA-2Na-containing tube (Lot No. MP0831, CAPIJECT (registered trade mark), Terumo Corporation, Japan). The blood samples were centrifuged at 15,000 rpm, 4° C. for 5 min and the supernatant (200 μL) was preserved at -80° C. until they were treated for radioimmunoassay. Melatonin concentration was measured using a kit (Lot No. 2428.10, BUHLMANN Laboratories AG, Switzerland) commercially available from T.N. TECHNOS., Limited, Japan.
The data are shown in average ±SEM (6 rats in each group). The statistical significance between samples and in samples was determined by repeated measurement ANOVA in which P<0.05 was significant.

[3] = system: delirium; conditions: of 10 patients over 65 years of age who developed delirium with heart failure etc.; cited from earlier work
[4] = system: delirium; conditions: five patients diagnosed as having delirium; cited from earlier work

CC(=O)NCC[C@@H]1CCc2ccc3nc(C)oc3c21 [compound A, (S)—N-[2-(2-methyl-7,8-dihydro-6H-indeno[5,4-d][1,3]oxazol-8-yl)ethyl]acetamide]
% in the initial dark period (rotating basket exercise) ([1]; 0.003 mg/kg orally once a day for 7 days): did not have a significant effect | % in the initial dark period (rotating basket exercise) ([1]; 0.03 mg/kg orally once a day for 7 days): did not have a significant effect | exercise starting time ([1]; 0.03 mg/kg repetitive oral administration, FIG. 4): significantly advanced | % in the initial dark period (rotating basket exercise), recovery of decrease ([1]; 0.3 mg/kg orally once a day for 7 days): improvement effect was significant | exercise starting time ([1]; 0.3 mg/kg repetitive oral administration, FIG. 2): significantly advanced | % in the initial dark period (rotating basket exercise), recovery of decrease ([1]; 1 mg/kg orally once a day for 7 days): improvement effect was significant | exercise starting time ([1]; 1 mg/kg repetitive oral administration, FIG. 2): significantly advanced | minimum effective dose (phase retardation) ([1]; oral, once a day for 7 days): 0.03 mg/kg | level of melatonin concentration (plasma) [2]: significantly increased | start of plasma melatonin [2]: advanced

CCC(=O)NCC[C@@H]1CCc2ccc3c(c21)CCO3 [ramelteon, (S)—N-[2-(1,6,7,8-tetrahydro-2H-indeno[5,4-b]furan-8-yl)ethyl]propionamide]
patients in whom delirium was improved [3]: 6 patients | recovery from delirium symptoms [4]: recovered from delirium symptoms the next day
